Experimental data: US7048907B2, “Synthesis, compositions and methods for the measurement of the concentration of stable-isotope labeled compounds in life forms and life form excretory products” (BioPhysics Assay Laboratory, Inc., priority 2001, dated 2006)

Key:
[1] = Stability of chelates in rat serum (CM-Sephadex assay, serum binding); details: 24 hours in rat serum at room temperature
[2] = demonstrated by properties of the marketed pharmaceutical product; cited from earlier work
[3] = Blood depletion of Gd-DTPA in the rat after three sequential administrations (theoretical example); format: in vivo
Description: In this theoretical example, three 0.5 ml samples of Gd-DTPA (0.05 mg/kg) each dissolved in saline (pH 7) are injected sequentially at 0, 20, and 40 minutes into the tail vein of a rat. Samples of blood are obtained at 10, 30 and 60 minutes following each injection and analyzed for Gd by T1 relaxation. […] This example highlights one advantage of using neutron activation over T1 relaxivity to measure pharmacological rates of elimination when using sequential injections (compare Examples 32 and 33).

[4] = Effect of dilution on the stability of Sm-DTPA; format: physicochemical
Description: Sm-DTPA (1 mM) was prepared as described in Example 9. The solution was further diluted with 0.01 M Tris buffer pH 7.51:10, 1:100, 1:1000, and 1:10000 and allowed to stand at room temperature for 24 hours. The four samples were then assayed for stability of the Sm-DTPA complex as described in Example 17.

[5] = Fraction 1: 0.2 ml sample then 2 ml 0.01M Tris pH 7.5 (eluate)
[6] = Fraction 2: 3 ml 0.01M Tris pH 7.5
[7] = Fraction 3: column and contents (retained)
[8] = Sm-DTPA 0.1 μM, 24 hours room temperature, Fraction 1: 3 ml Tris before sample
[9] = Sm-DTPA 0.1 μM, 24 hours room temperature, Fraction 2: sample then 3 ml Tris (eluate)
[10] = Sm-DTPA 0.1 μM, 24 hours room temperature, Fraction 3: further 3 ml Tris
[11] = Sm-DTPA 0.1 μM, 24 hours room temperature, Fraction 4: column and contents
[12] = Sm-DTPA 1 μM, 24 hours room temperature, Fraction 1: 3 ml Tris before sample
[13] = Sm-DTPA 1 μM, 24 hours room temperature, Fraction 2: sample then 3 ml Tris (eluate)
[14] = Sm-DTPA 1 μM, 24 hours room temperature, Fraction 3: further 3 ml Tris
[15] = Sm-DTPA 1 μM, 24 hours room temperature, Fraction 4: column and contents
[16] = Sm-DTPA 10 μM, 24 hours room temperature, Fraction 1: 3 ml Tris before sample
[17] = Sm-DTPA 10 μM, 24 hours room temperature, Fraction 2: sample then 3 ml Tris (eluate)
[18] = Sm-DTPA 10 μM, 24 hours room temperature, Fraction 3: further 3 ml Tris
[19] = Sm-DTPA 10 μM, 24 hours room temperature, Fraction 4: column and contents
[20] = Sm-DTPA 100 uM, 24 hours room temperature, Fraction 1: 3 ml Tris before sample
[21] = Sm-DTPA 100 uM, 24 hours room temperature, Fraction 2: sample then 3 ml Tris (eluate)
[22] = Sm-DTPA 100 uM, 24 hours room temperature, Fraction 3: further 3 ml Tris
[23] = Sm-DTPA 100 uM, 24 hours room temperature, Fraction 4: column and contents
[24] = Sm-DTPA 1 mM, Fraction 1: 3 ml Tris before sample
[25] = Sm-DTPA 1 mM, Fraction 2: sample then 3 ml Tris (eluate)
[26] = Sm-DTPA 1 mM, Fraction 3: further 3 ml Tris
[27] = Sm-DTPA 1 mM, Fraction 4: column and contents

In the case of `O=C([O-])CN(CCN(CC(=O)[O-])CC(=O)[O-])CCN(CC(=O)[O-])CC(=O)[O-].[Eu+3]` [Eu-DTPA], the “% of total” value [1, 5] is reported as 91 % of total, the dpm [1, 5] is reported as 4763 dpm and the “% of total” value [1, 6] is reported as 9 % of total. For the same compound, the dpm [1, 6] was 499 dpm, the “% of total” value [1, 7] was 0 % of total and the dpm [1, 7] was 0 dpm.
For `O=C([O-])CN(CCN(CC(=O)[O-])CC(=O)O)CCN(CC(=O)[O-])CC(=O)O.[Gd+3]` [Gd-DTPA, Gd-diethylenetriaminepentaacetic acid], the “stability to autoclaving” value [2] is listed as “stability of gadolinium-DTPA to autoclaving is demonstrated”, the “Percent of initial injection, First injection” value (“Percent … First injection” for short) ([3]; 0 min after 1st injection, Gd-DTPA 0.05 mg/kg i.v. at 0, 20, 40 minutes, T1 relaxation) is listed as 100% of initial injection and the “Percent of initial injection, Cumulative total” value (shortened to “Percent … Cumulative total”) ([3]; 0 min after 1st injection, calculated based upon the first injection) is listed as 100% of initial injection. The “Percent … Cumulative total” value ([3]; 10 min after 1st injection) was 81% of initial injection, the “Percent … First injection” value ([3]; 10 min after 1st injection) was 81% of initial injection and the “Percent of initial injection, Second injection” value (“Percent … Second injection” for short) ([3]; 20 min after 1st (0 min after 2nd) injection) was 100% of initial injection. For the same compound, the “Percent … Cumulative total” value ([3]; 20 min after 1st injection) was 173% of initial injection, the “Percent … First injection” value ([3]; 20 min after 1st injection) was 73% of initial injection and the “Percent … Second injection” value ([3]; 30 min after 1st (10 min after 2nd) injection) was 81% of initial injection. The “Percent … Cumulative total” value ([3]; 30 min after 1st injection) was 140% of initial injection, the “Percent … First injection” value ([3]; 30 min after 1st injection) was 59% of initial injection and the “Percent of initial injection, Third injection” value (from here on “Percent … Third injection”) ([3]; 40 min after 1st (0 min after 3rd) injection) was 100% of initial injection. The “Percent … Second injection” value ([3]; 40 min after 1st (20 min after 2nd) injection) was 73% of initial injection, the “Percent … Cumulative total” value ([3]; 40 min after 1st injection) was 220% of initial injection and the “Percent … First injection” value ([3]; 40 min after 1st injection) was 47% of initial injection. For the same compound, the “Percent … Third injection” value ([3]; 50 min after 1st (10 min after 3rd) injection) was 81% of initial injection, the “Percent … Second injection” value ([3]; 50 min after 1st (30 min after 2nd) injection) was 59% of initial injection and the “Percent … Cumulative total” value ([3]; 50 min after 1st injection) was 175% of initial injection. For the same compound, the “Percent … First injection” value ([3]; 50 min after 1st injection) was 35% of initial injection, the “Percent … Third injection” value ([3]; 60 min after 1st (20 min after 3rd) injection) was 73% of initial injection and the “Percent … Second injection” value ([3]; 60 min after 1st (40 min after 2nd) injection) was 47% of initial injection. The “Percent … Cumulative total” value ([3]; 60 min after 1st injection) was 149% of initial injection, the “Percent … First injection” value ([3]; 60 min after 1st injection) was 29% of initial injection and the “Percent … Third injection” value ([3]; 70 min after 1st (30 min after 3rd) injection) was 59% of initial injection. For the same compound, the “Percent … Second injection” value ([3]; 70 min after 1st (50 min after 2nd) injection) was 35% of initial injection, the “Percent … Cumulative total” value ([3]; 70 min after 1st injection) was 120% of initial injection and the “Percent … First injection” value ([3]; 70 min after 1st injection) was 26% of initial injection. The “Percent … Third injection” value ([3]; 80 min after 1st (40 min after 3rd) injection) was 47% of initial injection, the “Percent … Second injection” value ([3]; 80 min after 1st (60 min after 2nd) injection) was 26% of initial injection and the “Percent … Cumulative total” value ([3]; 80 min after 1st injection) was 95% of initial injection. For the same compound, the “Percent … First injection” value ([3]; 80 min after 1st injection) was 22% of initial injection, the “Percent … Third injection” value ([3]; 100 min after 1st (60 min after 3rd) injection) was 35% of initial injection and the “Percent … Second injection” value ([3]; 100 min after 1st (80 min after 2nd) injection) was 22% of initial injection. The “Percent … Cumulative total” value ([3]; 100 min after 1st injection) was 75% of initial injection and the “Percent … First injection” value ([3]; 100 min after 1st injection) was 18% of initial injection.
For `O=C([O-])CN(CCN(CC(=O)[O-])CC(=O)[O-])CCN(CC(=O)[O-])CC(=O)[O-].[La+3]` [La-DTPA], the “% of total” value [1, 5] was 93 % of total, the dpm [1, 5] was 82912 dpm and the “% of total” value [1, 6] was 7 % of total. The dpm [1, 6] was 6167 dpm, the “% of total” value [1, 7] was 0 % of total and the dpm [1, 7] was 0 dpm.
In the case of `O=C([O-])CN(CCN(CC(=O)[O-])CC(=O)[O-])CCN(CC(=O)[O-])CC(=O)[O-].[Sm+3]` [Sm-DTPA], the “% of total” value [4, 8] is reported as 0 % of total, the Dpm [4, 8] is reported as 0 dpm and the “% of total” value [4, 9] is reported as 99 % of total. The Dpm [4, 9] was 192 dpm, the “% of total” value [4, 10] was 1 % of total and the Dpm [4, 10] was 1 dpm. For the same compound, the “% of total” value [4, 11] was 0 % of total, the Dpm [4, 11] was 0 dpm and the “% of total” value [4, 12] was 0 % of total. For the same compound, the Dpm [4, 12] was 0 dpm, the “% of total” value [4, 13] was 96 % of total and the Dpm [4, 13] was 1386 dpm. For the same compound, the “% of total” value [4, 14] was 2 % of total, the Dpm [4, 14] was 29 dpm and the “% of total” value [4, 15] was 2 % of total. The Dpm [4, 15] was 21 dpm, the “% of total” value [4, 16] was 0 % of total and the Dpm [4, 16] was 0 dpm. The “% of total” value [4, 17] was 100 % of total, the Dpm [4, 17] was 15685 dpm and the “% of total” value [4, 18] was <1 % of total. The Dpm [4, 18] was 19 dpm, the “% of total” value [4, 19] was 0 % of total and the Dpm [4, 19] was 0 dpm. The “% of total” value [4, 20] was 0 % of total, the Dpm [4, 20] was 0 dpm and the “% of total” value [4, 21] was 98 % of total. For the same compound, the Dpm [4, 21] was 162208 dpm, the “% of total” value [4, 22] was <1 % of total and the Dpm [4, 22] was 1308 dpm. The “% of total” value [4, 23] was 2 % of total, the Dpm [4, 23] was 2121 dpm and the “% of total” value [4, 24] was 0 % of total. The Dpm [4, 24] was 0 dpm, the “% of total” value [4, 25] was 97 % of total and the Dpm [4, 25] was 1482087 dpm. The “% of total” value [4, 26] was 1 % of total, the Dpm [4, 26] was 19089 dpm and the “% of total” value [4, 27] was 2 % of total. For the same compound, the Dpm [4, 27] was 24257 dpm, the “stability of the complex on dilution” value ([4]; concentration limits of 1 mM to 0.1 μM, 24 hours room temperature) was “stable complex” and the “% eluting from CM Sephadex columns” value ([4]; concentration range of 0.1 μM to 1 mM) was 100%.
